Measured values reported in ChEMBL document CHEMBL2062504, “Diterpenoid alkaloids from the lateral root of Aconitum carmichaelii” (J Nat Prod, 2012).
Activity calls are given as the source filed them.

Legend:
HCT-8 = assay: Cytotoxicity against human HCT8 cells at 10 uM after 96 hrs by MTT assay; assay type: functional, cell-based
Bel-7402 = assay: Cytotoxicity against human Bel7402 cells at 10 uM after 96 hrs by MTT assay; assay type: functional, cell-based
WB-F344 = assay: Hepatoprotective activity against DL-galactosamine-induced cell death in rat WB-F344 cells at 10 uM incubated for 1 hr prior to DL-galactosamine-challenge measured after 24 hrs by MTT assay; assay type: functional, cell-based
Liver microsomes = assay: Antioxidant activity in rat liver microsome assessed as inhibition of FeSO4-induced lipid peroxidation at 10 uM incubated for 15 mins prior to FeSO4-challenge measured after 15 mins by modified thiobarbituric acid method; assay type: functional
A549 = assay: Cytotoxicity against human A549 cells at 10 uM after 96 hrs by MTT assay; assay type: functional, cell-based
KETR3 = assay: Cytotoxicity against human Ketr3 cells at 10 uM after 96 hrs by MTT assay; assay type: functional, cell-based
BGC-823 = assay: Cytotoxicity against human BGC823 cells at 10 uM after 96 hrs by MTT assay; assay type: functional, cell-based
[1] = tested on: Peritoneal macrophage cell; assay: Antiinflammatory activity in mouse peritoneal macrophages assessed as inhibition of nitric oxide production at 10 uM; assay type: functional, cell-based
MCF7 = assay: Cytotoxicity against human MCF7 cells at 10 uM after 96 hrs by MTT assay; assay type: functional, cell-based

C=C1C[C@]23C[C@H]4[C@@H]5[C@@]6(C)C[C@H](OC(=O)c7ccccc7)[C@@H](OC(C)=O)[C@]57C(C2[C@@H](O)[C@H]1[C@@H](OC(C)=O)[C@H]37)N4[C@H]6O
inactive: Activity (HCT-8) | Activity (Bel-7402) | Activity (WB-F344) | inhibition (Liver microsomes) | Activity (A549) | Activity (KETR3) | Activity (BGC-823) | inhibition [1] | Activity (MCF7)

COC[C@]12CN(C)C3[C@@H]4[C@H](OC)[C@H]1[C@@]3([C@@H](OC)C[C@H]2O)[C@@H]1C[C@@]2(O)[C@H](OC(=O)c3ccccc3)[C@@H]1[C@]4(O)[C@@H](O)[C@@H]2OC
inactive: Activity (HCT-8) | Activity (Bel-7402) | Activity (WB-F344) | inhibition (Liver microsomes) | Activity (A549) | Activity (KETR3) | Activity (BGC-823) | inhibition [1] | Activity (MCF7)

C=C1C[C@]23C4[C@@H](OC(=O)[C@@H](C)CC)[C@H]1[C@@H](O)[C@H]2[C@]12C[C@@H](OC(=O)CC)C[C@]5(C)[C@H]1[C@H]([C@@H]3O)[N+](C)([C@H]42)[C@H]5O
inactive: Activity (HCT-8) | Activity (Bel-7402) | Activity (WB-F344) | inhibition (Liver microsomes) | Activity (A549) | Activity (KETR3) | Activity (BGC-823) | inhibition [1] | Activity (MCF7)

COC[C@]12CN(C)C3[C@@H]4[C@H](OC)[C@H]1[C@@]3([C@@H](OC)C[C@H]2O)[C@]1(O)C[C@@]2(O)[C@H](OC(=O)c3ccccc3)[C@@H]1[C@]4(OC)[C@@H](O)[C@@H]2OC (stereo in doubt; 8)
inactive: Activity (HCT-8) | Activity (Bel-7402) | Activity (WB-F344) | inhibition (Liver microsomes) | Activity (A549) | Activity (KETR3) | Activity (BGC-823) | inhibition [1] | Activity (MCF7)

CCN1C[C@]2(COC)[C@H](O)C[C@H](OC)[C@]34C1[C@H]([C@H](OC)[C@H]23)[C@@]1(OC(C)=O)C[C@H](OC)[C@@]2(O)C[C@]4(O)[C@@H]1[C@H]2OC(=O)c1ccccc1
inactive: Activity (HCT-8) | Activity (Bel-7402) | Activity (WB-F344) | inhibition (Liver microsomes) | Activity (A549) | Activity (KETR3) | Activity (BGC-823) | inhibition [1] | Activity (MCF7)

CCN1C(=O)[C@]2(COC)CC[C@H](OC)[C@]34C1[C@H]([C@H](OC)[C@H]23)[C@]1(OC(C)=O)[C@H]2[C@@H](OC(=O)c3ccccc3)[C@](O)(C[C@H]24)[C@@H](OC)[C@@H]1O
inactive: Activity (HCT-8) | Activity (Bel-7402) | Activity (WB-F344) | inhibition (Liver microsomes) | Activity (A549) | Activity (KETR3) | Activity (BGC-823) | inhibition [1] | Activity (MCF7)

COC[C@@]12CC[C@H](OC)[C@]34C([C@H]([C@H](OC)[C@H]13)[C@]1(OC(C)=O)[C@H]3[C@@H](OC(=O)c5ccccc5)[C@](O)(C[C@]34O)[C@@H](OC)[C@@H]1O)N(C)C2
inactive: Activity (HCT-8) | Activity (Bel-7402) | Activity (WB-F344) | inhibition (Liver microsomes) | Activity (A549) | Activity (KETR3) | Activity (BGC-823) | inhibition [1] | Activity (MCF7)

C=C1C[C@@]23C[C@H]4[C@@H]5[C@@]6(C)C[C@H](OC(=O)CC)C[C@@]57[C@@H]2[C@H](O)[C@@H]1[C@H](OC(=O)[C@@H](C)CC)C3[C@H]7[N+]4(C)[C@H]6O
inactive: Activity (HCT-8) | Activity (Bel-7402) | Activity (WB-F344) | inhibition (Liver microsomes) | Activity (A549) | Activity (KETR3) | Activity (BGC-823) | inhibition [1] | Activity (MCF7)

COC[C@]12CN(C)C3[C@@H]4[C@H](OC)[C@H]1[C@@]3([C@@H](OC)C[C@H]2O)[C@]1(O)C[C@@]2(O)[C@H](OC(=O)c3ccccc3)[C@@H]1[C@]4(OC)[C@@H](O)[C@@H]2OC (stereo in doubt; 7)
inactive: Activity (HCT-8) | Activity (Bel-7402) | Activity (WB-F344) | inhibition (Liver microsomes) | Activity (A549) | Activity (KETR3) | Activity (BGC-823) | inhibition [1] | Activity (MCF7)

CCN1C[C@]2(COC)CC[C@H](OC)[C@]34C1[C@H]([C@H](OC)[C@H]23)[C@]1(OC(C)=O)[C@H]2[C@@H](OC(=O)c3ccccc3)[C@](O)(C[C@H]24)[C@@H](OC)[C@@H]1O
inactive: Activity (HCT-8) | Activity (Bel-7402) | Activity (WB-F344) | inhibition (Liver microsomes) | Activity (A549) | Activity (KETR3) | Activity (BGC-823) | inhibition [1] | Activity (MCF7)

CCN1C[C@]2(COC)CC[C@H](OC)[C@]34C1[C@H]([C@H](O)[C@H]23)[C@]1(O)[C@H]2[C@@H](OC(=O)c3ccccc3)[C@H](C[C@H]24)[C@@H](OC)[C@@H]1O
inactive: Activity (HCT-8) | Activity (Bel-7402) | Activity (WB-F344) | inhibition (Liver microsomes) | Activity (A549) | Activity (KETR3) | Activity (BGC-823) | inhibition [1] | Activity (MCF7)

CCN1C[C@]2(COC)CC[C@H](O)[C@]34C1[C@H]([C@H](OC)[C@H]23)[C@]1(O)[C@H]2[C@@H](OC(=O)c3ccccc3)[C@H](C[C@H]24)[C@@H](OC)[C@@H]1O
inactive: Activity (HCT-8) | Activity (Bel-7402) | Activity (WB-F344) | inhibition (Liver microsomes) | Activity (A549) | Activity (KETR3) | Activity (BGC-823) | inhibition [1] | Activity (MCF7)

CCN1C[C@]2(COC)CC[C@H](O)[C@]34C1[C@H](C[C@H]23)[C@]1(O)[C@H]2[C@@H](OC(=O)c3ccccc3)[C@H](C[C@H]24)[C@@H](OC)[C@@H]1O
inactive: Activity (HCT-8) | Activity (Bel-7402) | Activity (WB-F344) | inhibition (Liver microsomes) | Activity (A549) | Activity (KETR3) | Activity (BGC-823) | inhibition [1] | Activity (MCF7)

CCN1C[C@]2(COC)CC[C@H](OC)[C@]34C1[C@H]([C@H](OC)[C@H]23)[C@]1(OC(C)=O)[C@H]2[C@@H](OC(=O)c3ccccc3)[C@H](C[C@H]24)[C@@H](OC)[C@@H]1O
inactive: Activity (HCT-8) | Activity (Bel-7402) | Activity (WB-F344) | inhibition (Liver microsomes) | Activity (A549) | Activity (KETR3) | Activity (BGC-823) | inhibition [1] | Activity (MCF7)

COC[C@]12CN(C)C3[C@@H]4[C@H](OC)[C@H]1[C@@]3([C@@H](OC)C[C@H]2O)[C@]1(O)C[C@@]2(O)[C@H](OC(=O)c3ccccc3)[C@@H]1[C@]4(O)[C@@H](O)[C@H]2OC
inactive: Activity (HCT-8) | Activity (Bel-7402) | Activity (WB-F344) | inhibition (Liver microsomes) | Activity (A549) | Activity (KETR3) | Activity (BGC-823) | inhibition [1] | Activity (MCF7)

CCN1C[C@]2(COC)CC[C@H](OC)[C@]34C1[C@H]([C@H](OC)[C@H]23)[C@@]1(O)C[C@H](OC)[C@@]2(O)C[C@@H]4[C@@H]1[C@H]2OC(=O)c1ccccc1
inactive: Activity (HCT-8) | Activity (Bel-7402) | Activity (WB-F344) | inhibition (Liver microsomes) | Activity (A549) | Activity (KETR3) | Activity (BGC-823) | inhibition [1] | Activity (MCF7)

C=C1C[C@]23C4[C@@H](OC(=O)[C@@H](C)CC)[C@H]1[C@@H](O)[C@H]2[C@]12C[C@@H](OC(=O)C(C)C)C[C@]5(C)[C@H]1[C@H]([C@@H]3O)[N+](C)([C@H]42)[C@H]5O
inactive: Activity (HCT-8) | Activity (Bel-7402) | Activity (WB-F344) | inhibition (Liver microsomes) | Activity (A549) | Activity (KETR3) | Activity (BGC-823) | inhibition [1] | Activity (MCF7)

CCN1C[C@]2(COC)CC[C@H](OC)[C@]34C1[C@H](C[C@H]23)[C@]1(O)[C@H]2[C@@H](OC(=O)c3ccccc3)[C@](O)(C[C@H]24)[C@@H](OC)[C@@H]1O
inactive: Activity (HCT-8) | Activity (Bel-7402) | Activity (WB-F344) | inhibition (Liver microsomes) | Activity (A549) | Activity (KETR3) | Activity (BGC-823) | inhibition [1] | Activity (MCF7)

CCN1C[C@]2(COC)CC[C@H](OC)[C@]34C1[C@H]([C@H](OC)[C@H]23)[C@]1(OC)[C@H]2[C@@H](OC(=O)c3ccccc3)[C@](O)(C[C@H]24)[C@@H](OC)[C@@H]1O (single isomer, unassigned; (-))
inactive: Activity (HCT-8) | Activity (Bel-7402) | Activity (WB-F344) | inhibition (Liver microsomes) | Activity (A549) | Activity (KETR3) | Activity (BGC-823) | inhibition [1] | Activity (MCF7)
